# Data reported in patent US8415469B2, “Compounds and methods for kinase modulation, and indications therefor” (Plexxikon Inc., priority 2005, dated 2013).
# Legend:
# Format in all cases: biochemical
# B-Raf = molecular target: T1, B-Raf (Homo sapiens, UniProt P15056); experiment: AlphaScreen kinase assay, B-Raf; conditions: read-out: IC50, activity toward kinase B-Raf
# T1 construct: purchased Upstate Biotechnology
# Kit = molecular target: T2, Kit (Homo sapiens, UniProt P10721); experiment: AlphaScreen kinase assay, Kit; conditions: read-out: IC50, activity toward kinase Kit
# T2 construct: P1332.N6 BI PTP KIT M552-K948-X COD; His6 (N); made in house; host or cells: E. coli (PTP1B co-expressed)
# FGFR1 = molecular target: T3, FGFR1 (Homo sapiens, UniProt P11362, C488A/C584S); experiment: AlphaScreen kinase assay, FGFR1; conditions: read-out: IC50, activity toward kinase FGFR
# T3 construct: P1351.pET N6 BI-PTP FGFR A458-E765-X C488A, C584S; made in house; host or cells: E. coli (PTP1B co-expressed)
# Flt1 = molecular target: T4, Flt1 (Homo sapiens, UniProt P17948); experiment: AlphaScreen kinase assay, Flt1; conditions: read-out: IC50, activity toward kinase Flt1
# T4 construct: P1826.pETN6 BI-PTP FLT1 M799-D1165-X WT; His6 (N); made in house; host or cells: E. coli (PTP1B co-expressed)
# T4 sequence (P17948 with tags, fused parts or gaps): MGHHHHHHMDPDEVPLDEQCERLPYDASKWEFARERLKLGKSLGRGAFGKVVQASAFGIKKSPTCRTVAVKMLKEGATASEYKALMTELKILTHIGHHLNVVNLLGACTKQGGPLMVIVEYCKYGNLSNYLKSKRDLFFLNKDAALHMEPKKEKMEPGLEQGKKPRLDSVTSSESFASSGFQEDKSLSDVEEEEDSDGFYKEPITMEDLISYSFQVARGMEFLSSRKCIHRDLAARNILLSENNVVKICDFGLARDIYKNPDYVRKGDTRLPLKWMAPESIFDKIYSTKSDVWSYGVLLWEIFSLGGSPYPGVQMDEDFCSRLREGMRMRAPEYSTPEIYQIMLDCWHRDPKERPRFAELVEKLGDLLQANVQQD
# B-Raf V600E = molecular target: T5, B-Raf V600E (Homo sapiens, UniProt P15056, V600E); experiment: AlphaScreen kinase assay, B-Raf V600E; conditions: read-out: IC50, activity toward kinase B-Raf V600E
# T5 construct: P4254. pFastBacBD-CDC37 BRAF D437-K722-X, V600E; His6 with pFastBac HT leader (TEV site) (N); made in house; host or cells: Sf9 (baculovirus; chaperone CDC37 co-expressed)
# Fms = molecular target: T6, Fms (Homo sapiens, UniProt P07333); experiment: AlphaScreen kinase assay, Fms; conditions: read-out: IC50, activity toward kinase Fms
# T6 construct: purchased Upstate Biotechnology
# T6 sequence (P07333 20-972): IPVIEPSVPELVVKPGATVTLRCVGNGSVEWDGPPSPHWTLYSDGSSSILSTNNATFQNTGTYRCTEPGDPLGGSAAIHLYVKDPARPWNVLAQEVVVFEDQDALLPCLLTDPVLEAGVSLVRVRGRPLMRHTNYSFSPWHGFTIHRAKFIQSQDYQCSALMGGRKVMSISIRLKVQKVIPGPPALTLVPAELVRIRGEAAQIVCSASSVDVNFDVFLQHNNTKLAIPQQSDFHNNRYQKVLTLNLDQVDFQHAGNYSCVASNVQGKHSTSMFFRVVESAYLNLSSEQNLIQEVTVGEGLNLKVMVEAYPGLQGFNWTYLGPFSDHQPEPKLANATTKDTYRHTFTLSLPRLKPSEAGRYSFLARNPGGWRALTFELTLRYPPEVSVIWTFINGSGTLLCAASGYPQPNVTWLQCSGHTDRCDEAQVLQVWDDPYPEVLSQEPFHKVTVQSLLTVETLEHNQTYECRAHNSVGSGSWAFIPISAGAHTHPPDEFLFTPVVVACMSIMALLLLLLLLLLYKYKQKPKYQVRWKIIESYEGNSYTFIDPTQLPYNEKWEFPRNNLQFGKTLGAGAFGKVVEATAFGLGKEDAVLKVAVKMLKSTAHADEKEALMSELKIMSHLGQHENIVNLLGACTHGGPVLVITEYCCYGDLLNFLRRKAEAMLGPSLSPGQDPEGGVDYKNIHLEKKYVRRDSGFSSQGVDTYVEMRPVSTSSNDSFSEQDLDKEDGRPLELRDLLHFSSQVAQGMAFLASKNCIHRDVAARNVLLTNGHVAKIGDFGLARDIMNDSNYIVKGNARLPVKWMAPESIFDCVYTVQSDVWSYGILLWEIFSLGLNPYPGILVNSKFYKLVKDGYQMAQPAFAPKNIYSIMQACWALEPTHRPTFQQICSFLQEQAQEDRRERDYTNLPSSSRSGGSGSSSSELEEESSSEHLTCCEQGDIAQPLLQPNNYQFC
# T3 sequence (P11362 458-765 C488A/C584S): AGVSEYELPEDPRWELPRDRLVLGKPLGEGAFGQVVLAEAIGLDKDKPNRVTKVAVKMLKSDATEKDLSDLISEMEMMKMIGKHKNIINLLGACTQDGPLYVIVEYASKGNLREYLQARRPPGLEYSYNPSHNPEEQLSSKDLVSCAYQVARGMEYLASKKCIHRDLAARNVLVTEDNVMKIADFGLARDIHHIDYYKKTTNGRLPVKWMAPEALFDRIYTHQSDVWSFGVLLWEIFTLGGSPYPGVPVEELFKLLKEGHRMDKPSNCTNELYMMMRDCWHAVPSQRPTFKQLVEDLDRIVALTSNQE
# T2 sequence (P10721 with tags, fused parts or gaps): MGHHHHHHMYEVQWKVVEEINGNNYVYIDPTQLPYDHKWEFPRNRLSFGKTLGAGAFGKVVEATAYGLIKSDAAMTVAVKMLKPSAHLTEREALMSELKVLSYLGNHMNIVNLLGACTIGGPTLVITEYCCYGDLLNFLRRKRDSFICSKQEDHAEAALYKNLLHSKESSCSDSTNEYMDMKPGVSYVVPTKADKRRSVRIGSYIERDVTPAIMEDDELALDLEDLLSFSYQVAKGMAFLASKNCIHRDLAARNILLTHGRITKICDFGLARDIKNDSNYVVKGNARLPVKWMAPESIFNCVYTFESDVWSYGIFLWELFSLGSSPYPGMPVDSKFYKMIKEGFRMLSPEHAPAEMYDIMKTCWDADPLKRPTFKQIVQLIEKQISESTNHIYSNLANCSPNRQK
# T5 sequence (P15056 with tags, fused parts or gaps V600E): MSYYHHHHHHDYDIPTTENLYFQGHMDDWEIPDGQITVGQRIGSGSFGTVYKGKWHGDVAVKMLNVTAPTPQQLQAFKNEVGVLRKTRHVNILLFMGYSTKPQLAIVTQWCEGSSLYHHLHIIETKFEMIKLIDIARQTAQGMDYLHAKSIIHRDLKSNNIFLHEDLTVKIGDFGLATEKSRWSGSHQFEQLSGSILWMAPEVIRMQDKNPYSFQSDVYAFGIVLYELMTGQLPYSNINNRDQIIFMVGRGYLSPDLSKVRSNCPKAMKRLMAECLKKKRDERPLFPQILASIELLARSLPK
# T1 sequence (P15056 whole entry): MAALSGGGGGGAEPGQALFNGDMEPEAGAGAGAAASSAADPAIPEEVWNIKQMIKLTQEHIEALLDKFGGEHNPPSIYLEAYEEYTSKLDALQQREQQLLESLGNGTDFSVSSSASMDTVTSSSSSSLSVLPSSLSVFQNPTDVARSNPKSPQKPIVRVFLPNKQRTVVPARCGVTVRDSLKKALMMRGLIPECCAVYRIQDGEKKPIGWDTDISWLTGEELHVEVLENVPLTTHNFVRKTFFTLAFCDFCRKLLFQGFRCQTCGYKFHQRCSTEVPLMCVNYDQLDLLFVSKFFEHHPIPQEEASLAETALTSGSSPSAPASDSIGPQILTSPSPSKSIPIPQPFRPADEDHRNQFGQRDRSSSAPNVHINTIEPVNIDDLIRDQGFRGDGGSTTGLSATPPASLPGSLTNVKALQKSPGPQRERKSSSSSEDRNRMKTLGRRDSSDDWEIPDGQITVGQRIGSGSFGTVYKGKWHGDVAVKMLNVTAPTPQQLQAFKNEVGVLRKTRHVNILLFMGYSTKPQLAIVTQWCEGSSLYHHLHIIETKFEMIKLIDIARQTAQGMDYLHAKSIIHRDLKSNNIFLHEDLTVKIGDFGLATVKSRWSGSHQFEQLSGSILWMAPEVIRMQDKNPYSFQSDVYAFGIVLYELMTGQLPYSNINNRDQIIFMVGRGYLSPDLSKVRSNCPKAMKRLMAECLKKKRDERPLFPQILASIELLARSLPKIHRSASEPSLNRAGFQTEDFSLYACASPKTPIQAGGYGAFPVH
SMILES,IC50 (B-Raf),IC50 (Kit),IC50 (FGFR1),IC50 (Flt1),IC50 (B-Raf V600E),IC50 (Fms)
"COc1cc(Cc2c[nH]c3ncc(Br)cc23)cc(OC)c1 [Compound P-1464, 5-Bromo-3-(3,5-dimethoxy-benzyl)-1H-pyrrolo[2,3-b]pyridine]",,≤ 10 µM,≤ 10 µM,≤ 10 µM,,≤ 10 µM
"COc1cc(OC)cc(C(=O)c2c[nH]c3ncc(Br)cc23)c1 [Compound P-1463, (5-Bromo-1H-pyrrolo[2,3-b]pyridin-3-yl)-(3,5-dimethoxy-phenyl)-methanone]",,≤ 10 µM,≤ 10 µM,≤ 10 µM,,≤ 10 µM
"CC(=O)Nc1cccc(-c2cnc3[nH]cc(C(=O)c4cc(Cl)cc(Cl)c4)c3c2)c1 [Compound P-1423, N-{3-[3-(3,5-Dichloro-benzoyl)-1H-pyrrolo[2,3-b]pyridin-5-yl]-phenyl}-acetamide]",,≤ 10 µM,≤ 10 µM,≤ 10 µM,≤ 10 µM,≤ 10 µM
"OC(c1c(Cl)ccc(OCC(F)(F)F)c1F)c1c[nH]c2ncc(Br)cc12 (stereo not drawn) [Compound P-1393, (5-Bromo-1H-pyrrolo[2,3-b]pyridin-3-yl)-[6-chloro-2-fluoro-3-(2,2,2-trifluoro-ethoxy)-phenyl]-methanol]",,≤ 10 µM,≤ 10 µM,≤ 10 µM,,≤ 10 µM
COC(=O)/C=C/c1cccc(-c2cnc3[nH]cc(C(=O)c4cccc(NS(C)(=O)=O)c4)c3c2)c1 [Compound P-1404],,≤ 10 µM,≤ 10 µM,≤ 10 µM,,≤ 10 µM
"CS(=O)(=O)Nc1cccc(-c2cnc3[nH]cc(C(=O)c4cccc(C(F)(F)F)c4)c3c2)c1 [Compound P-1425, N-{3-[3-(3-Trifluoromethyl-benzoyl)-1H-pyrrolo[2,3-b]pyridin-5-yl]-phenyl}-methanesulfonamide]",,≤ 10 µM,,≤ 10 µM,≤ 10 µM,≤ 10 µM
"Oc1ccc(Nc2c[nH]c3ncccc23)c(F)c1 [Compound P-1499, 3-Fluoro-4-(1H-pyrrolo[2,3-b]pyridin-3-ylamino)-phenol]",,≤ 10 µM,,≤ 10 µM,,≤ 10 µM
"CS(=O)(=O)Nc1cccc(-c2cnc3[nH]cc(C(=O)c4cccc(OC(F)(F)F)c4)c3c2)c1 [Compound P-1428, N-{3-[3-(3-Trifluoromethoxy-benzoyl)-1H-pyrrolo[2,3-b]pyridin-5-yl]-phenyl}-methanesulfonamide]",,≤ 10 µM,≤ 10 µM,≤ 10 µM,,≤ 10 µM
CC(C)(C)OC(=O)N(Cc1ccc(Cl)cc1)c1ccc(C(=O)c2c[nH]c3ncccc23)cn1 [Compound P-1194],,≤ 10 µM,≤ 10 µM,≤ 10 µM,≤ 10 µM,≤ 10 µM
"CS(=O)(=O)Nc1cccc(-c2cnc3[nH]cc(C(=O)c4cc(F)cc(C(F)(F)F)c4)c3c2)c1 [Compound P-1427, N-{3-[3-(3-Fluoro-5-trifluoromethyl-benzoyl)-1H-pyrrolo[2,3-b]pyridin-5-yl]-phenyl}-methanesulfonamide]",,≤ 10 µM,,≤ 10 µM,,≤ 10 µM
"COc1cnc2[nH]cc(Cc3c(F)ccc(NC(=O)NC4CCCC4)c3F)c2c1 [Compound P-1572, 1-Cyclopentyl-3-[2,4-difluoro-3-(5-methoxy-1H-pyrrolo[2,3-b]pyridin-3-ylmethyl)-phenyl]-urea]",,,,≤ 10 µM,≤ 10 µM,≤ 10 µM
Cc1nc(NCc2ccc(C(F)(F)F)cc2)ccc1Cc1c[nH]c2ncccc12 [Compound P-1112],,,,≤ 10 µM,≤ 10 µM,≤ 10 µM
COc1cc(OC)cc(C(O)c2c[nH]c3ncc(Br)cc23)c1 (stereo not drawn) [Compound P-1460],,≤ 10 µM,≤ 10 µM,≤ 10 µM,,≤ 10 µM
COc1cc(OC)cc(C(OC)c2c[nH]c3ncc(Br)cc23)c1 (stereo not drawn) [Compound P-1461],,≤ 10 µM,≤ 10 µM,≤ 10 µM,,≤ 10 µM
O=C(c1ccc(NCc2ccc(F)cc2)nc1)c1c[nH]c2ncccc12 [Compound P-0491],,,,≤ 10 µM,,≤ 10 µM
"c1ccc(Cc2cccc(Nc3c[nH]c4ncccc34)c2)cc1 [Compound P-1497, (3-Benzyl-phenyl)-(1H-pyrrolo[2,3-b]pyridin-3-yl)-amine]",,≤ 10 µM,,≤ 10 µM,,≤ 10 µM
"CS(=O)(=O)Nc1cccc(-c2cnc3[nH]cc(C(=O)c4ccc5c(c4)OC(F)(F)O5)c3c2)c1 [Compound P-1564, N-{3-[3-(2,2-Difluoro-benzo[1,3]dioxole-5-carbonyl)-1H-pyrrolo[2,3-b]pyridin-5-yl]-phenyl}-methanesulfonamide]",,≤ 10 µM,≤ 10 µM,≤ 10 µM,≤ 10 µM,≤ 10 µM

# Second part, the compound after the results:
IC50 (B-Raf),IC50 (Kit),IC50 (FGFR1),IC50 (Flt1),IC50 (B-Raf V600E),IC50 (Fms),SMILES
≤ 10 µM,≤ 10 µM,≤ 10 µM,≤ 10 µM,,,Nc1cccc(C(=O)c2c[nH]c3ncc(-c4cccc(OC(F)(F)F)c4)cc23)c1 [Compound P-1593]
,,,≤ 10 µM,≤ 10 µM,≤ 10 µM,"O=C(c1c(F)ccc(NC(=O)N2CCOCC2)c1F)c1c[nH]c2ncc(Cl)cc12 [Compound P-1606, Morpholine-4-carboxylic acid [3-(5-chloro-1H-pyrrolo[2,3-b]pyridine-3-carbonyl)-2,4-difluoro-phenyl]-amide]"
,,≤ 10 µM,≤ 10 µM,,≤ 10 µM,"CCCCN(C)C(=O)Nc1ccc(F)c(Cc2c[nH]c3ncc(Cl)cc23)c1F [Compound P-1625, 1-Butyl-3-[3-(5-chloro-1H-pyrrolo[2,3-b]pyridin-3-ylmethyl)-2,4-difluoro-phenyl]-1-methyl-urea]"
≤ 10 µM,,,≤ 10 µM,≤ 10 µM,≤ 10 µM,"CCCCNC(=O)Nc1ccc(F)c(C(=O)c2c[nH]c3ncc(Cl)cc23)c1F [Compound P-1586, 1-Butyl-3-[3-(5-chloro-1H-pyrrolo[2,3-b]pyridine-3-carbonyl)-2,4-difluoro-phenyl]-urea]"
≤ 10 µM,≤ 10 µM,≤ 10 µM,≤ 10 µM,≤ 10 µM,,"COc1cnc2[nH]cc(C(=O)c3c(F)ccc(NS(=O)(=O)c4ccc(F)cc4)c3F)c2c1 [Compound P-1582, N-[2,4-Difluoro-3-(5-methoxy-1H-pyrrolo[2,3-b]pyridine-3-carbonyl)-phenyl]-4-fluoro-benzenesulfonamide]"
,,≤ 10 µM,≤ 10 µM,,≤ 10 µM,"O=C(Nc1ccc(F)c(Cc2c[nH]c3ncc(Cl)cc23)c1F)N1CCOCC1 [Compound P-1595, Morpholine-4-carboxylic acid [3-(5-chloro-1H-pyrrolo[2,3-b]pyridin-3-ylmethyl)-2,4-difluoro-phenyl]-amide]"
≤ 10 µM,≤ 10 µM,,≤ 10 µM,≤ 10 µM,,"COc1cnc2[nH]cc(Cc3c(F)ccc(NS(=O)(=O)c4cccc(C(F)(F)F)c4)c3F)c2c1 [Compound P-1590, N-[2,4-Difluoro-3-(5-methoxy-1H-pyrrolo[2,3-b]pyridin-3-ylmethyl)-phenyl]-3-trifluoromethyl-benzenesulfonamide]"
≤ 10 µM,,,≤ 10 µM,≤ 10 µM,≤ 10 µM,"CCCCN(C)C(=O)Nc1ccc(F)c(C(=O)c2c[nH]c3ncc(Cl)cc23)c1F [Compound P-1612, 1-Butyl-3-[3-(5-chloro-1H-pyrrolo[2,3-b]pyridine-3-carbonyl)-2,4-difluoro-phenyl]-1-methyl-urea]"
≤ 10 µM,,,≤ 10 µM,≤ 10 µM,,"O=S(=O)(Nc1ccc(F)c(Cc2c[nH]c3ncc(Cl)cc23)c1F)c1cccc(C(F)(F)F)c1 [Compound P-1600, N-[2,4-Difluoro-3-(5-chloro-1H-pyrrolo[2,3-b]pyridin-3-ylmethyl)-phenyl]-3-trifluoromethyl-benzenesulfonamide]"
≤ 10 µM,≤ 10 µM,≤ 10 µM,≤ 10 µM,≤ 10 µM,,"CS(=O)(=O)Nc1ccc(F)c(Cc2c[nH]c3ncc(-c4cccnc4)cc23)c1F [Compound P-1605, N-[2,4-Difluoro-3-(5-pyridin-3-yl-1H-pyrrolo[2,3-b]pyridin-3-ylmethyl)-phenyl]-methanesulfonamide]"
,,,≤ 10 µM,≤ 10 µM,≤ 10 µM,"O=C(NCCN1CCOCC1)Nc1ccc(F)c(Cc2c[nH]c3ncc(Cl)cc23)c1F [Compound P-1594, 1-[3-(5-Chloro-1H-pyrrolo[2,3-b]pyridin-3-ylmethyl)-2,4-difluoro-phenyl]-3-(2-morpholin-4-yl-ethyl)-urea]"
